Results: US20250179047A1, “5-[7-(3,4-DIHYDRO-1H-ISOQUINOLINE-2-CARBONYL)-1,2,3,4 TETRAHYDROISOQUINOLIN-6-YL]-1H-PYRROLE-3-CARBOXAMIDE DERIVATIVES, PHARMACEUTICAL COMPOSITIONS CONTAINING THEM AND THEIR USES AS PRO-APOPTOTIC AGENTS” (LES LABORATOIRES SERVIER, priority 2022, published 2025)

How the values were obtained:
KMS-12-PE Bcl-2 WT = assay: In vitro cytotoxicity CellTiter-Glo 48 h, KMS-12-PE Bcl-2 WT; assay type: cell-based; conditions: Homo sapiens, KMS-12-PE, C50 = concentration needed to reach 50% of the cellular viability
Summary of the method: (§1)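 Viability measured by CellTiter-Glo luminescence after 48 h compound exposure (11-point curve, 37 °C, 5% CO2). Cells: KMS-12-PE transduced with wild-type or G101V-mutant Bcl-2, FACS-sorted for TagRFP. Reported C50 = concentration reaching 50% cellular viability.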

BCL2 G101V [1] = molecular target: BCL2 G101V (Homo sapiens, UniProt P10415, G101V); assay: TR-FRET competitive binding assay, BCL2 G101V; conditions: BCL2 G101V; Ki determined from IC50; read-out: TR_FRET EKI_Bcl2 G101V
Summary of the method: (§2)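 Terbium-labelled N-terminal Halo-fusion BCL2 or BCLXL (E. coli), 0.5 nM, competed against fluorescein-labelled PUMA peptide (2 or 20 nM) for 2 h at 23° C in 50 mM Hepes pH 7.5, 150 mM NaCl, 5% DMSO. TR-FRET 520/495 nm ratio gave IC50 by four-parameter fit; Ki derived from IC50.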

BCL2 G101V [2] = assay: TR-FRET competitive binding assay, BCL2 G101V; set-up: species or system human; conditions: ratio Ki BCL2 G101V / Ki BCL2 WT
Summary of the method: as §2

BCL2 D103Y = BCL2 D103Y (Homo sapiens, UniProt P10415, D103Y); assay: TR-FRET competitive binding assay, BCL2 D103Y; conditions: Ki determined from IC50, read-out: TR_FRET EKI_Bcl2 D103Y
Summary of the method: as §2

BCLXL WT = BCLXL WT (Homo sapiens (Human), UniProt Q07817); assay: TR-FRET competitive binding assay, BCLXL WT; conditions: for Ki: BCLXL WT, Ki determined from IC50, read-out: TR_FRET EKI BclxL; for TR_FRET EKI BCLxL/WT selectivty ratio: ratio Ki BCLxL / Ki BCL2 WT
Summary of the method: as §2

BCL2 WT = BCL2 WT (Homo sapiens (Human), UniProt P10415); assay: TR-FRET competitive binding assay, BCL2 WT; conditions: Ki determined from IC50, read-out: TR_FRET EKI_Bcl2 WT
Summary of the method: as §2

KMS-12-PE Bcl-2 G101V = assay: In vitro cytotoxicity CellTiter-Glo 48 h, KMS-12-PE Bcl-2 G101V; assay type: cell-based; conditions: for Ratio (G101V/WT): C50 KMS-12-PE Bcl-2 G101V over C50 KMS-12-PE Bcl-2 WT; for IC50: Homo sapiens, KMS-12-PE, 48 h, CellTiter-Glo, C50 = concentration needed to reach 50% of the cellular viability
Summary of the method: as §1

Chain of BCLXL WT (Q07817 other isoform, or with tags, fused parts or gaps): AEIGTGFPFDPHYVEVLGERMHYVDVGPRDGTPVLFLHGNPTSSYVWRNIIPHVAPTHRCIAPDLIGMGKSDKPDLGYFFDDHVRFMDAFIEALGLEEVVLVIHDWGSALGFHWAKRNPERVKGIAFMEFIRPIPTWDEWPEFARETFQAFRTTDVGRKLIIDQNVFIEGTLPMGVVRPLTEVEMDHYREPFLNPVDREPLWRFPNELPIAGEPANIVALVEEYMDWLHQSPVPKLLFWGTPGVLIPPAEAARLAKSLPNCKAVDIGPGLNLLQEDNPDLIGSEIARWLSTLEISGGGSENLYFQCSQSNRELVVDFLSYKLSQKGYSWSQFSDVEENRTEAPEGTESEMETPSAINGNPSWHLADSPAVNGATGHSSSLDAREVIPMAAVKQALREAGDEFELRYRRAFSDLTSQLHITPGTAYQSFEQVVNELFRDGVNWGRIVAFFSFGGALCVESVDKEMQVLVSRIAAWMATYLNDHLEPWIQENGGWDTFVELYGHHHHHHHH

Ki (BCL2 G101V [1]) [nM] | TR_FRET EKI G101V/WT selectivty ratio (BCL2 G101V [2]) | Ki (BCL2 D103Y) [nM] | Ki (BCLXL WT) [nM] | TR_FRET EKI BCLxL/WT selectivty ratio (BCLXL WT) | Ki (BCL2 WT) [nM] | Compound | IC50 (KMS-12-PE Bcl-2 WT) [µM] | Ratio (G101V/WT) (KMS-12-PE Bcl-2 G101V) | IC50 (KMS-12-PE Bcl-2 G101V) [µM]
1.1 | 11.0 | 0.18 | 7.7 | 77.0 | 0.1 | Cc1c(C(=O)N(c2ccc(O)cc2)c2cnn(CC(C)C)c2)cc(-c2cc3c(cc2C(=O)N2Cc4ccccc4C[C@H]2C)CN(C(=O)Cc2ccc(OCCN4CCOCC4)cc2)CC3)n1C [Example 144, N-(4-hydroxyphenyl)-1,2-dimethyl-5-(7-{[(3R)-3-methyl-3,4-dihydro-1H-isoquinolin-2-yl]carbonyl}-2-(2-{4-[2-(morpholin-4-yl)ethoxy]phenyl}acetyl)-3,4-dihydro-1H-isoquinolin-6-yl)-N-[1-(2-methylpropyl)pyrazol-4-yl]pyrrole-3-carboxamide] | 0.0245 | 12.531 | 0.307
0.3 | 5.9 | 0.14 | 1 | 17.2 | 0.06 | Cc1c(C(=O)N(c2ccc(O)cc2)c2cnn3c2CCCC3)cc(-c2cc3c(cc2C(=O)N2Cc4ccccc4C[C@H]2C)CN(C(=O)Cc2ccc(OCCN4CCOCC4)cc2)CC3)n1C [Example 147, N-(4-hydroxyphenyl)-1,2-dimethyl-5-(7-{[(3R)-3-methyl-3,4-dihydro-1H-isoquinolin-2-yl]carbonyl}-2-(2-{4-[2-(morpholin-4-yl)ethoxy]phenyl}acetyl)-3,4-dihydro-1H-isoquinolin-6-yl)-N-{4H,5H,6H,7H-pyrazolo[1,5-a]pyridin-3-yl}pyrrole-3-carboxamide] | 0.0304 | 6.9408 | 0.211
1 | 5.9 | 0.43 | 1.8 | 11.3 | 0.16 | Cc1c(C(=O)N(c2ccc(O)cc2)c2cc(C#N)n(CC3CCOC3)c2C)cc(-c2cc3c(cc2C(=O)N2Cc4ccccc4C[C@H]2C)CN(C(=O)Cc2ccc(OCCN4CCOCC4)cc2F)CC3)n1C (single isomer, unassigned) [Example 84, N-[5-cyano-2-methyl-1-((3S or R)-tetrahydrofuran-3-ylmethyl)pyrrol-3-yl]-5-[2-[2-[2-fluoro-4-(2-morpholinoethoxy)phenyl]acetyl]-7-[(3R)-3-methyl-3,4-dihydro-1H-isoquinoline-2-carbonyl]-3,4-dihydro-1H-isoquinolin-6-yl]-N-(4-hydroxyphenyl)-1,2-dimethyl-pyrrole-3-carboxamide] | 0.0073 | 4.83 | 0.0353
1.5 | 5.8 | 0.75 | 3.9 | 15.0 | 0.26 | Cc1c(N(C(=O)c2cc(-c3cc4c(cc3C(=O)N3Cc5ccccc5C[C@H]3CN3CC[C@@H](F)C3)CN(C(=O)Cc3ccc(OCCC5CCOCC5)cc3)CC4)n(C)c2C)c2ccc(O)cc2)cc(C#N)n1C [Example 79, N-(5-cyano-1,2-dimethylpyrrol-3-yl)-5-(7-{[(3S)-3-{[(3R)-3-fluoropyrrolidin-1-yl]methyl}-3,4-dihydro-1H-isoquinolin-2-yl]carbonyl}-2-(2-{4-[2-(oxan-4-yl)ethoxy]phenyl}acetyl)-3,4-dihydro-1H-isoquinolin-6-yl)-N-(4-hydroxyphenyl)-1,2-dimethylpyrrole-3-carboxamide] | 0.0122 | 4.85 | 0.0592
0.3 | 5.5 | 0.18 | 1.8 | 32.7 | 0.06 | Cc1c(N(C(=O)c2cc(-c3cc4c(cc3C(=O)N3Cc5ccccc5C[C@H]3CN3CCCCC3)CN(C(=O)Cc3ccc(OCCN5CCC(F)CC5)cc3)CC4)n(C)c2C)c2ccc(O)cc2)cc(C#N)n1C [Example 76, N-(5-cyano-1,2-dimethylpyrrol-3-yl)-5-[2-(2-{4-[2-(4-fluoropiperidin-1-yl)ethoxy]phenyl}acetyl)-7-{[(3S)-3-(piperidin-1-ylmethyl)-3,4-dihydro-1H-isoquinolin-2-yl]carbonyl}-3,4-dihydro-1H-isoquinolin-6-yl]-N-(4-hydroxyphenyl)-1,2-dimethylpyrrole-3-carboxamide] | 0.0165 | 5.28 | 0.0871
0.2 | 5.8 | 0.16 | 2.3 | 74.2 | 0.03 | Cc1c(N(C(=O)c2cc(-c3cc4c(cc3C(=O)N3Cc5ccccc5C[C@H]3CN3CCC5(CC5)C3)CN(C(=O)Cc3ccc(OCCN5CCOCC5)cc3F)CC4)n(C)c2C)c2ccc(O)cc2)cc(C#N)n1C [Example 176, 5-[7-[(3S)-3-(5-azaspiro[2.4]heptan-5-ylmethyl)-3,4-dihydro-1H-isoquinoline-2-carbonyl]-2-[2-[2-fluoro-4-(2-morpholinoethoxy)phenyl]acetyl]-3,4-dihydro-1H-isoquinolin-6-yl]-N-(5-cyano-1,2-dimethyl-pyrrol-3-yl)-N-(4-hydroxyphenyl)-1,2-dimethyl-pyrrole-3-carboxamide] | 0.0093 | 6.4155 | 0.0596
1.5 | 6.5 | 0.53 | 8.7 | 37.8 | 0.23 | Cc1c(N(C(=O)c2cc(-c3cc4c(cc3C(=O)N3Cc5ccccc5C[C@H]3CN3CCCCC3)CN(C(=O)Cc3ccc(CCN5CCC(F)(F)CC5)cc3)CC4)n(C)c2C)c2ccc(O)cc2)cc(C#N)n1C [Example 131, N-(5-cyano-1,2-dimethylpyrrol-3-yl)-5-[2-(2-{4-[2-(4,4-difluoropiperidin-1-yl)ethyl]phenyl}acetyl)-7-{[(3S)-3-(piperidin-1-ylmethyl)-3,4-dihydro-1H-isoquinolin-2-yl]carbonyl}-3,4-dihydro-1H-isoquinolin-6-yl]-N-(4-hydroxyphenyl)-1,2-dimethylpyrrole-3-carboxamide] | 0.0361 | 6.759 | 0.244
0.2 | 6.3 | 0.18 | 1.5 | 55.6 | 0.03 | Cc1c(C(=O)N(c2ccc(O)cc2)c2cc(C#N)n(C(F)F)c2C)cc(-c2cc3c(cc2C(=O)N2Cc4ccccc4C[C@H]2CN2CCCCC2)CN(C(=O)Cc2ccc(OCCN4CCN(C)CC4)cc2F)CC3)n1C [Example 160, N-[5-cyano-1-(difluoromethyl)-2-methylpyrrol-3-yl]-5-[2-(2-{2-fluoro-4-[2-(4-methylpiperazin-1-yl)ethoxy]phenyl}acetyl)-7-{[(3S)-3-(piperidin-1-ylmethyl)-3,4-dihydro-1H-isoquinolin-2-yl]carbonyl}-3,4-dihydro-1H-isoquinolin-6-yl]-N-(4-hydroxyphenyl)-1,2-dimethylpyrrole-3-carboxamide] | 0.0113 | 3.8053 | 0.043
0.3 | 5.1 | 0.13 | 3.7 | 69.8 | 0.05 | Cc1c(C(=O)N(c2ccc(O)cc2)c2cc(C#N)n(C(F)F)c2C)cc(-c2cc3c(cc2C(=O)N2Cc4ccccc4C[C@H]2CN2CCCCC2)CN(C(=O)Cc2ccc(OCCN4CCN(CCF)CC4)cc2F)CC3)n1C [Example 159, N-[5-cyano-1-(difluoromethyl)-2-methylpyrrol-3-yl]-5-{2-[2-(2-fluoro-4-{2-[4-(2-fluoroethyl)piperazin-1-yl]ethoxy}phenyl)acetyl]-7-{[(3S)-3-(piperidin-1-ylmethyl)-3,4-dihydro-1H-isoquinolin-2-yl]carbonyl}-3,4-dihydro-1H-isoquinolin-6-yl}-N-(4-hydroxyphenyl)-1,2-dimethylpyrrole-3-carboxamide] | 0.0079 | 4.9873 | 0.0392
